Data from ChEMBL document CHEMBL1201862, “PubChem BioAssay data set” (2004).
The source made the active and inactive calls.

Legend:
[1] = molecular target: Caspase-9 (Homo sapiens, UniProt P55211); assay: inhibitors of purified CASP9 protease – biochemical, fluorescence, plate reader, cherry-picked samples, selectivity assay for caspase-6 inhibitor project, dose response (AID 743293)
[2] = molecular target: T1, Sentrin-specific protease 8 (Homo sapiens, UniProt Q96LD8); type: functional;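 note: luminescence read-out of SENP8 inhibition, dose-response confirmation following an ultra-high-throughput screen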
T1 sequence (Q96LD8 whole entry): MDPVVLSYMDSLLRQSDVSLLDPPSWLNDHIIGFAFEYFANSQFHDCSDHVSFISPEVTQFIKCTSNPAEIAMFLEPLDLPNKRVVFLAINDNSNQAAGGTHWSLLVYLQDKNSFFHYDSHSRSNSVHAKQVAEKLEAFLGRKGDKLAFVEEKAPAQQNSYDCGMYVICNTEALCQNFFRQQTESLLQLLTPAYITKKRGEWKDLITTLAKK

[3] = molecular target: T2, Caspase-3 (Homo sapiens, UniProt P42574); type: functional;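 note: Dose-response selectivity test against caspase-3 for candidate inhibitors of sentrin-specific proteases (SENPs)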
T2 sequence (P42574 whole entry): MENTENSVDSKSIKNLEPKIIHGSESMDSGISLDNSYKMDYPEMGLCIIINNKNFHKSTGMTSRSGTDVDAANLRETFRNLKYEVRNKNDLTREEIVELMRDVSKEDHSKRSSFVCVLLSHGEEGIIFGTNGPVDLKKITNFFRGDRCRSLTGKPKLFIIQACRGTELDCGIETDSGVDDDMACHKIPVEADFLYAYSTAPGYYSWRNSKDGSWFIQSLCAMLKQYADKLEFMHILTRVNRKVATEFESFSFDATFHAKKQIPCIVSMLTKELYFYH

[4] = molecular target: T3, Sentrin-specific protease 7 (Homo sapiens, UniProt Q9BQF6); type: functional;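 note: Luminescence-based dose-response confirmation of ultra-high-throughput screening hits, measuring inhibition of SENP7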
T3 sequence (Q9BQF6 whole entry): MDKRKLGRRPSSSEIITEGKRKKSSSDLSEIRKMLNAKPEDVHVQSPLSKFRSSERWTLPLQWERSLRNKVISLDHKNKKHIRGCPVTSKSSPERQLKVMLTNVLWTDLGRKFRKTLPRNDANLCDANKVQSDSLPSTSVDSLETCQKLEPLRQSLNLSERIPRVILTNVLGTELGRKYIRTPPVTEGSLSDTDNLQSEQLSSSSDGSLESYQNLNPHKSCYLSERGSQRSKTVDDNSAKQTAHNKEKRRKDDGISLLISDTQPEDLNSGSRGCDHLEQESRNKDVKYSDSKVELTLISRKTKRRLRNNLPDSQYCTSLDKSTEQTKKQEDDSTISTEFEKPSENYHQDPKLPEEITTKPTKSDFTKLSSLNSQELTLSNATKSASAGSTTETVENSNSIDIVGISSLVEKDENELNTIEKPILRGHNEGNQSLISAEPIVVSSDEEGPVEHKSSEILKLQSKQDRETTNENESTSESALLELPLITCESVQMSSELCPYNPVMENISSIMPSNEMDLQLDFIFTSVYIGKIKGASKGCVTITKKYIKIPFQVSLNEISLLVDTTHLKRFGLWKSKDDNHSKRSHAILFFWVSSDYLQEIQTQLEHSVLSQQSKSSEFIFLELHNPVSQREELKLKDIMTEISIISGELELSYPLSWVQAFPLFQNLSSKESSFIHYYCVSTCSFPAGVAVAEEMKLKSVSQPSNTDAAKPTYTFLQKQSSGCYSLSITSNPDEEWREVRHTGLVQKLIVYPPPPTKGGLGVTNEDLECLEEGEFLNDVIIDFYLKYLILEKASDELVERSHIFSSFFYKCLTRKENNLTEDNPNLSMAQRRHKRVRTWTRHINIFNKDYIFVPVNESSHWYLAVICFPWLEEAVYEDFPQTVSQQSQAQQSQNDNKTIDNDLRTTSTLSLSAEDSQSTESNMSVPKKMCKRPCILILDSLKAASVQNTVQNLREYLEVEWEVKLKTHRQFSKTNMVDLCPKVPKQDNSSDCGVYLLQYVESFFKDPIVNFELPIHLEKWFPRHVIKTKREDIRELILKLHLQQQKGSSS

[5] = molecular target: T4, Sentrin-specific protease 6 (Homo sapiens, UniProt Q9GZR1); type: functional;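 note: Luminescence-based dose-response confirmatory assay of SENP6 inhibition, following up an ultra-high-throughput screen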
T4 sequence (Q9GZR1 whole entry): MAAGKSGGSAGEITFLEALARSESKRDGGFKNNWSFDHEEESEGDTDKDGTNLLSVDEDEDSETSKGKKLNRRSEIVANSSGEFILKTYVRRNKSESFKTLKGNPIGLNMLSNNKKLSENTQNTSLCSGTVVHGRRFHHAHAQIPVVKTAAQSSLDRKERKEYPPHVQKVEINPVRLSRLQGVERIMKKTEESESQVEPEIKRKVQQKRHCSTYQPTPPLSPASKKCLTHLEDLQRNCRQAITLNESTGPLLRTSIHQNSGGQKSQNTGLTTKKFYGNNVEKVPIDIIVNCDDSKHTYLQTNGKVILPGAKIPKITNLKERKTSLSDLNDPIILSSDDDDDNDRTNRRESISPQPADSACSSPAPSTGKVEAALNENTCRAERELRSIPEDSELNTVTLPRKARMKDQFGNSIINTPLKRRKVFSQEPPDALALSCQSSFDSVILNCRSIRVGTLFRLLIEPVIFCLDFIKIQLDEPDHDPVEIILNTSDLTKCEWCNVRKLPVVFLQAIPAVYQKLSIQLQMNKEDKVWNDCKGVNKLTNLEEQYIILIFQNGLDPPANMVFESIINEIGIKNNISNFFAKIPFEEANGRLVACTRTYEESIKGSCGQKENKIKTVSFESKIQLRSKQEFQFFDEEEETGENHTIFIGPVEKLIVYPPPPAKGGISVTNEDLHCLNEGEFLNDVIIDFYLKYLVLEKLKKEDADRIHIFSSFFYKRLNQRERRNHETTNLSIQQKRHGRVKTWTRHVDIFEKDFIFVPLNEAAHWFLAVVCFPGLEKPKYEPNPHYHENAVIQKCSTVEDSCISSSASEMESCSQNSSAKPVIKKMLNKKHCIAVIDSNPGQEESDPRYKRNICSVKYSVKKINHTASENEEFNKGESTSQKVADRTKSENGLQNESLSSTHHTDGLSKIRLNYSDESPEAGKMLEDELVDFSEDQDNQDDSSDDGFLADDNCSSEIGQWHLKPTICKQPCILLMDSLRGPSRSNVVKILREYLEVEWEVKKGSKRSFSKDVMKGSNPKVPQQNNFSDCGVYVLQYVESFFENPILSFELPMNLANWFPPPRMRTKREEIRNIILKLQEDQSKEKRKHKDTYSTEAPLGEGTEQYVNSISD

[6] = molecular target: Serine/threonine-protein kinase BRSK1 (Homo sapiens, UniProt Q8TDC3); type: functional;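 note: measured within a kinome-wide kinase panel, with the target listed as KIAA1811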
Sequence of Serine/threonine-protein kinase BRSK1 (Q8TDC3 whole entry): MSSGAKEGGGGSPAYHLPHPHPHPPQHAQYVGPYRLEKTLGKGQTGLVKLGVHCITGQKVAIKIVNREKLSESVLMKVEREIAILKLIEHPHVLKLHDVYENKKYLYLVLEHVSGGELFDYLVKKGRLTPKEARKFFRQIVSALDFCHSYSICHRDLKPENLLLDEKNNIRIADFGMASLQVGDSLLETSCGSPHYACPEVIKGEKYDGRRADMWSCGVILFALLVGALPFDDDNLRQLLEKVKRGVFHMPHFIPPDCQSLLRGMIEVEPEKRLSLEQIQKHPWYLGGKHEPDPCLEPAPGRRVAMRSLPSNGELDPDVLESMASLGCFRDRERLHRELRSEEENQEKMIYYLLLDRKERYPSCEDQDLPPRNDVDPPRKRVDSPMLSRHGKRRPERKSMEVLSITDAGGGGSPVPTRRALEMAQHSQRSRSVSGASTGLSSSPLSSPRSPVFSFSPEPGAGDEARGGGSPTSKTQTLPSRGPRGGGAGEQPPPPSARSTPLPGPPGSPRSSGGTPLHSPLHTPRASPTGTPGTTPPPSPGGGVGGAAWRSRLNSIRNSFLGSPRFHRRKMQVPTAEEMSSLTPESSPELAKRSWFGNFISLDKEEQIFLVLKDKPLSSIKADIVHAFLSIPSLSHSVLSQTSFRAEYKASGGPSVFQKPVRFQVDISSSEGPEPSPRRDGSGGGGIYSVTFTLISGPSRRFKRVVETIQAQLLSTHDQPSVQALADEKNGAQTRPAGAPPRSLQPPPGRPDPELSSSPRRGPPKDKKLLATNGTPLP

[7] = molecular target: Tyrosine-protein kinase ABL1 (Homo sapiens, UniProt P00519); type: functional
Sequence of Tyrosine-protein kinase ABL1 (P00519 whole entry): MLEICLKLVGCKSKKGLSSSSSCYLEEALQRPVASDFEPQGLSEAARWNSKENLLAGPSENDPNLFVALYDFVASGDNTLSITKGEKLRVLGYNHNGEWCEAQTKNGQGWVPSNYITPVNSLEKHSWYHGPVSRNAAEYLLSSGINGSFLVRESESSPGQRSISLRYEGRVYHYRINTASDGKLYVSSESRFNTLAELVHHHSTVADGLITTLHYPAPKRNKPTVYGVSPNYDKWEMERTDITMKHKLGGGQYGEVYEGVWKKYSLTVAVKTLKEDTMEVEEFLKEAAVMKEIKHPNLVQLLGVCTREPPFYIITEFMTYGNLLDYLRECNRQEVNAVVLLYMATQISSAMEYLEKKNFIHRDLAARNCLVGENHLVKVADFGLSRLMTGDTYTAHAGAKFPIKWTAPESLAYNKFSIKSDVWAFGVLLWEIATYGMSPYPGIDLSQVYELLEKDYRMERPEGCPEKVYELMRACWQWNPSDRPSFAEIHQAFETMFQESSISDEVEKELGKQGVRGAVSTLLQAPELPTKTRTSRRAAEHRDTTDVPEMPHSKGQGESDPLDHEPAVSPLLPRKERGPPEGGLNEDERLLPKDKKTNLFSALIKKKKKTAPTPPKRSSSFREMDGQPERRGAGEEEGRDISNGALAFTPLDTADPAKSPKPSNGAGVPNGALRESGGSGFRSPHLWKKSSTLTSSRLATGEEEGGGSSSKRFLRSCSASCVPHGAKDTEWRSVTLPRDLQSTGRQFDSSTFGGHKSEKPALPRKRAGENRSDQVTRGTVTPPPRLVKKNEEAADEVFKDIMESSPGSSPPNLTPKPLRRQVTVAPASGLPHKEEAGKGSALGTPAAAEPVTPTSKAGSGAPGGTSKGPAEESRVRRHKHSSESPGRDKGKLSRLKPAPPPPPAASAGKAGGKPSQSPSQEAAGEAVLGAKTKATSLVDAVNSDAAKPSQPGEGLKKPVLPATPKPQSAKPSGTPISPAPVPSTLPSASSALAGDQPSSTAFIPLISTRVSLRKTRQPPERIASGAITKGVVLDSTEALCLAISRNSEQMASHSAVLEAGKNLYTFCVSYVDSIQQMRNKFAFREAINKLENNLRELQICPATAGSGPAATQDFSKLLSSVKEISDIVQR

[8] = molecular target: Macrophage colony-stimulating factor 1 receptor (Homo sapiens, UniProt P07333); type: functional;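 note: value comes from the Navigating the Kinome screening panel, CSF1R member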
Sequence of Macrophage colony-stimulating factor 1 receptor (P07333 whole entry): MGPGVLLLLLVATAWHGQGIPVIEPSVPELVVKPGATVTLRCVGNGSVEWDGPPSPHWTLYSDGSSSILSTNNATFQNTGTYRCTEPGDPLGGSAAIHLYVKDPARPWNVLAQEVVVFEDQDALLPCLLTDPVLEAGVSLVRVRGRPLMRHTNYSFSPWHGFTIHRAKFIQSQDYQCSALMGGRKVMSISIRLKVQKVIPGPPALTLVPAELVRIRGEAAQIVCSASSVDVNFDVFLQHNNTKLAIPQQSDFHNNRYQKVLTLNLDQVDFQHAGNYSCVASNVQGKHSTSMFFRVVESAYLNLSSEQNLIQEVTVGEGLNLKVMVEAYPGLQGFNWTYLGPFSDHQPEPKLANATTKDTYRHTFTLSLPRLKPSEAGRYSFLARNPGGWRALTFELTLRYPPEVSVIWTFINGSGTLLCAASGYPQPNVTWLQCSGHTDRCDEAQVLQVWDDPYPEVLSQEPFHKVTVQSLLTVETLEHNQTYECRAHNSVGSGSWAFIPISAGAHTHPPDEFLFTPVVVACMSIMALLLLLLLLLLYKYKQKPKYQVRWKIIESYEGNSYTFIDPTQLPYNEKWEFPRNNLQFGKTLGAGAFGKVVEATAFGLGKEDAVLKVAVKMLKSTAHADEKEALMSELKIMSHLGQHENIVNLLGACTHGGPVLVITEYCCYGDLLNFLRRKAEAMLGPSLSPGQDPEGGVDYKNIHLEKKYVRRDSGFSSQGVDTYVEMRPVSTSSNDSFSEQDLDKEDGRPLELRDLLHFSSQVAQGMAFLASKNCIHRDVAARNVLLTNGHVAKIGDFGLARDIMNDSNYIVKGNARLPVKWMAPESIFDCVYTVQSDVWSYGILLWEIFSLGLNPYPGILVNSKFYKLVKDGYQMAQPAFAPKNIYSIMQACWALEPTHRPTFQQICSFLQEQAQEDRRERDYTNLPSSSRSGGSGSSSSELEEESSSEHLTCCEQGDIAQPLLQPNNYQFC

[9] = molecular target: Serine/threonine-protein kinase 17A (Homo sapiens, UniProt Q9UEE5); type: functional
Sequence of Serine/threonine-protein kinase 17A (Q9UEE5 whole entry): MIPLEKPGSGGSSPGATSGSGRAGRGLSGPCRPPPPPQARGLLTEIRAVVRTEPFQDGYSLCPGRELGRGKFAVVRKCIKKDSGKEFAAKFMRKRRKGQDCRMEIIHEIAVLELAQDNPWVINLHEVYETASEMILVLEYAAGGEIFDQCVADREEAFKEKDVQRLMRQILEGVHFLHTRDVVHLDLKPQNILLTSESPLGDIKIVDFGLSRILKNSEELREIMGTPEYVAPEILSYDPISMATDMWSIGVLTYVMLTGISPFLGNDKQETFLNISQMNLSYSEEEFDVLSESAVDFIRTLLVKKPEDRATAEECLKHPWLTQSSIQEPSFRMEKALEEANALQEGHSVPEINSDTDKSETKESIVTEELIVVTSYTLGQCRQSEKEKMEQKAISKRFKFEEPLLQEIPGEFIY

Sequence of Caspase-9 (P55211 1-315 limits assumed): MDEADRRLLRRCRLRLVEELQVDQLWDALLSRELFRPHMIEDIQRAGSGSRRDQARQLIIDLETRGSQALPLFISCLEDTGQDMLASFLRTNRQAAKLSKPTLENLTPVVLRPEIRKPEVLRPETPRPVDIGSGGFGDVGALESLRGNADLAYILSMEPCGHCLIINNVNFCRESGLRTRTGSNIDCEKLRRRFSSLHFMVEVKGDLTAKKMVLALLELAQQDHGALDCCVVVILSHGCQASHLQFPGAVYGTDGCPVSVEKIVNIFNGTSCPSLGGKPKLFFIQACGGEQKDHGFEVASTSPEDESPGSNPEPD
Sequence of Caspase-9 (P55211 331-416 limits assumed): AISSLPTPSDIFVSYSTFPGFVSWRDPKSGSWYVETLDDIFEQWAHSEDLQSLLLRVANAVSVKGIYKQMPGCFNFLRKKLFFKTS

Structure (SMILES)	AC50 [1]	IC50 [2]	IC50 [3]	IC50 [4]	IC50 [5]	Ki [6]	Ki [7]	Ki [8]	Ki [9]
O=C(COC(=O)c1ccc([N+](=O)[O-])s1)Nc1cccc(S(=O)(=O)/N=C2/CCCCCN2)c1	30.2 µM (active)	4.92 µM (active)	10 µM (active)	7.08 µM (active)	4.62 µM (active)	–	–	–	–
COc1ccc(C(C[N+](=O)[O-])c2c(C)[nH]n(-c3ccccc3)c2=O)cc1 (stereo not drawn)	–	8.32 µM (active)	> 100 µM (inactive)	7.15 µM (active)	7.1 µM (active)	–	–	–	–
Oc1c2ccccc2c2c3c(cccc13)N=N2 [SP-600125]	–	–	–	–	–	0.794 µM (active)	> 0.631 µM (inactive)	0.126 µM (active)	0.0398 µM (active)
